Each structure is given as a SMILES string. pIC50: −log10 of the molar value.

The target in the assay is T1, Amine oxidase [flavin-containing] B (Homo sapiens, UniProt P27338).
T1 sequence (P27338 whole entry): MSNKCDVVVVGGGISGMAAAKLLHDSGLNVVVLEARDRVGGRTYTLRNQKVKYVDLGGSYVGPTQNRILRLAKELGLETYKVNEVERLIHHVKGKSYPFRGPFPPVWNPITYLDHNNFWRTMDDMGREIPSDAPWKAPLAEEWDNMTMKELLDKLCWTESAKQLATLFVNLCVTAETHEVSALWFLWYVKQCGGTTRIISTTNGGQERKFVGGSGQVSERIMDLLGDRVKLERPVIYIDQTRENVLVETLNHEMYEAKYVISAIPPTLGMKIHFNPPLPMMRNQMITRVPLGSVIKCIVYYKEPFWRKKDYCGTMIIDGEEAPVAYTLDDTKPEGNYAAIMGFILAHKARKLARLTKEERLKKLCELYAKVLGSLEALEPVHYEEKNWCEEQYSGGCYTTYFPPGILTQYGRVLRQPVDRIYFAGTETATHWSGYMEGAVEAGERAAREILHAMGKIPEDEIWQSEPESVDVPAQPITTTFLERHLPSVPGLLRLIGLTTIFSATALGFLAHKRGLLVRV
The assay can be described thus: Inhibition of MAO-B (unknown origin).

For orientation: pIC50 means −log10 of the IC50, conventionally taken in molar units. Low values mean a high IC50, high ones a low IC50. The compound `CN(C)CCN1CCN(Cc2ccc(C(=O)Nc3nc4ccccc4s3)cc2)CC1` gave a pIC50 of 7.40.
